For the assay, the target named is T1, AmPDH (Agaricus meleagris pyranose dehydrogenase) (Macropsalliota meleagris, UniProt Q3L245).
T1 construct: gene pdh1; recombinant from Pichia pastoris X-33, secreted glycoprotein, about 75 kDa, monomer, 577 amino acids, covalent 8alpha-N(3)-histidyl FAD at H103
As to the kind of experiment: stopped-flow reductive half-reaction, […] nm. To be noted: pH 7.5, 65 mM sodium phosphate, 30 °C; 0.1-5 mM D-glucose; only a bimolecular rate constant. It counts as biochemical.

Structures are written as SMILES.

T1 sequence (Q3L245 26-602): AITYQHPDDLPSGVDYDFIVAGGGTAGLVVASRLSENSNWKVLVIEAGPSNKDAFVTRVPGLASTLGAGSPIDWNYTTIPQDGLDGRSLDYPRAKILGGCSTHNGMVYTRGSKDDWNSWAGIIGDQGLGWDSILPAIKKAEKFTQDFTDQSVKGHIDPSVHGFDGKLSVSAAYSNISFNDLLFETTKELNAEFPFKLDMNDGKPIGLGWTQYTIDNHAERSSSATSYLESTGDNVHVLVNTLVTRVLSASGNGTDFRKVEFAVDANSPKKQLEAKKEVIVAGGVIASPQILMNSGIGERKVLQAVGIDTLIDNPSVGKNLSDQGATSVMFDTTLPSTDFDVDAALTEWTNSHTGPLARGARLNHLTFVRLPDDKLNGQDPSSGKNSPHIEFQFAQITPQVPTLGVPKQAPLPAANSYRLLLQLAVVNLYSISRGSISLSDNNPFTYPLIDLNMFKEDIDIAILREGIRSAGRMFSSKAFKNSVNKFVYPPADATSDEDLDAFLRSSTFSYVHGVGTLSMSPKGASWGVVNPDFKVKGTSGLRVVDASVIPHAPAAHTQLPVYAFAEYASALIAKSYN

`OC[C@H]1OC(O)[C@H](O)[C@@H](O)[C@@H]1O` (stereo partly drawn) [D-glucose]: the kapp entry was “spectral changes of wild-type AmPDH upon addition of D-glucose”.

The record behind these values is publication PMC4148704, “Agaricus meleagris pyranose dehydrogenase: Influence of covalent FAD linkage on catalysis and stability” (Archives of Biochemistry and Biophysics, 2014).
